Reference: ChEMBL document CHEMBL1149050, “An antifungal polyacetylenic compound from the culture filtrate of the fungus Trametes pubescens” (1994)
Values after ≈ are worked out from the molar mass of the structure shown.

Key:
Assay type in all cases: functional
[1] = system: Agrobacterium tumefaciens; assay: Antibacterial activity against Agrobacterium tumefaciens ATCC 23308 after 24 hrs at 37 degC by serial dilution method; conditions: ATCC 23308, 24 h
Rhodotorula glutinis = assay: Antifungal activity against Rhodotorula glutinis DSM70398 after 24 hrs at 27 degC by serial dilution method
Candida albicans = assay: Antifungal activity against Candida albicans ATCC 10231 after 24 hrs at 37 degC by serial dilution method; conditions: ATCC 10231, 24 h
Candida tropicalis = assay: Antifungal activity against Candida tropicalis DSM1346 after 24 hrs at 37 degC by serial dilution method
Staphylococcus aureus = assay: Antibacterial activity against Staphylococcus aureus ATCC 13709 after 24 hrs at 37 degC by serial dilution method; conditions: ATCC 13709, 24 h
Aspergillus ochraceus = assay: Inhibition of spore germination of Aspergillus ochraceus DSM63304 after 24 hrs at 27 degC by serial dilution method
Bacillus cereus = assay: Antibacterial activity against Bacillus cereus DSM318 after 24 hrs at 37 degC by serial dilution method; conditions: DSM318, 24 h
Aspergillus niger = assay: Inhibition of spore germination of Aspergillus niger DSM737 after 24 hrs at 27 degC by serial dilution method; conditions: DSM737, 24 h

MIC [1]: > 100 µg/mL
MIC (Rhodotorula glutinis): 10 µg/mL (≈ 62.4 µM)
MIC (Candida albicans): 50 µg/mL (≈ 312 µM)
MIC (Candida tropicalis): 50 µg/mL (≈ 312 µM)
MIC (Staphylococcus aureus): > 100 µg/mL
MIC (Aspergillus ochraceus): 1 µg/mL (≈ 6.24 µM)
MIC (Bacillus cereus): > 100 µg/mL
MIC (Aspergillus niger): 1 µg/mL (≈ 6.24 µM)
Structure (SMILES): CC#CC#CC#C[C@@H]1O[C@@H]1CO (relative stereo)
